2 compounds from ChEMBL document CHEMBL2396625 (Bioorg Med Chem Lett, 2013) can be followed below.

One data set relates to A375P. The data set is described as follows: Antimigratory activity against human A375P cells overexpressing PRL3 at 10 to 20 uM after 20 hrs by crystal violet staining-based light microscopic analysis. The class given is functional, cell-based.
For data set [1], the target named is T1, Dual specificity protein phosphatase 10 (Homo sapiens) (UniProt Q9Y6W6).
T1 sequence (whole entry): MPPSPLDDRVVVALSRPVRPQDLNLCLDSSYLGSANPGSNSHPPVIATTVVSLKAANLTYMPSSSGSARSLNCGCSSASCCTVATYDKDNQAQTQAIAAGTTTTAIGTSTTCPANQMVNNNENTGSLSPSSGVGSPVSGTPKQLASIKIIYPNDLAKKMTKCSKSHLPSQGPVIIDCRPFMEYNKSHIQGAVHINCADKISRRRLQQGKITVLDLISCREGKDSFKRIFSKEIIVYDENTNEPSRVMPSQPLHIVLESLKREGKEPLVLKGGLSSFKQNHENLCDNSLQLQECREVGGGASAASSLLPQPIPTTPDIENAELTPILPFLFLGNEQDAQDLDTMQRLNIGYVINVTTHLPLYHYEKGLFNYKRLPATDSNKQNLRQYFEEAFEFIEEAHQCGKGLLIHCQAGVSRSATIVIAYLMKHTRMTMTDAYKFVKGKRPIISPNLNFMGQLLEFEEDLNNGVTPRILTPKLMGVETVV
The data set is described as follows: Inhibition of MKP5 (unknown origin) using DiFMUP as substrate at 5 uM relative to control.

For data set [2], the target named is T2, Tyrosine-protein phosphatase non-receptor type 2 (Homo sapiens) (UniProt P17706).
T2 sequence (whole entry): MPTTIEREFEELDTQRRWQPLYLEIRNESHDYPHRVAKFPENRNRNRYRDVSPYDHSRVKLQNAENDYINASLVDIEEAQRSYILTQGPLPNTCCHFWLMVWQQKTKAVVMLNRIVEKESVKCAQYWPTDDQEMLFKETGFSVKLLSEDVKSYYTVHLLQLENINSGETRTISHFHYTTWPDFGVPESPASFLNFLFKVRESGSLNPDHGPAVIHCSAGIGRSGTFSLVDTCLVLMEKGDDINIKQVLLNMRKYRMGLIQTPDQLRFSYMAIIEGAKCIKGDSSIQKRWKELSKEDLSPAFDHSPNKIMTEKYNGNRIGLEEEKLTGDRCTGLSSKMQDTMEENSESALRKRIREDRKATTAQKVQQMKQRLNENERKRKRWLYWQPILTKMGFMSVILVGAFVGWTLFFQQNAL
As to the kind of experiment: Inhibition of TCPTP (unknown origin) using DiFMUP as substrate at 5 uM relative to control.

Data set [3] relates to DLD-1. As to the kind of experiment: Antiinvasive activity against human DLD1 cells overexpressing PRL3 at 20 uM after 20 hrs by crystal violet staining-based light microscopic analysis relative to control. The class given is functional. The note with it: DLD-1, 20 h.
Data set [4] addresses Dual specificity protein phosphatase 3 (Homo sapiens) (UniProt P51452). As to the kind of experiment: Inhibition of VHR (unknown origin) using DiFMUP as substrate at 5 uM relative to control.
The test system of a further data set is MDA-MB-231. The data set is described as follows: Antimigratory activity against human MDA-MB-231 cells expressing low level of PRL3 at 10 to 20 uM after 20 hrs by crystal violet staining-based light microscopic analysis. The class given is functional, cell-based.
Data set [5] relates to DLD-1. The data set is described as follows: Antimigratory activity against human DLD1 cells overexpressing PRL3 at 10 uM after 20 hrs by crystal violet staining-based light microscopic analysis. The class given is functional, cell-based.
A further data set relates to MIA PaCa-2. As to the kind of experiment: Antimigratory activity against human MIAPaCa2 cells overexpressing PRL3 at 10 to 20 uM after 20 hrs by crystal violet staining-based light microscopic analysis. The class given is functional, cell-based.
Data set [6] deals with T3, Tyrosine-protein phosphatase non-receptor type 1 (Homo sapiens) (UniProt P18031).
T3 sequence (whole entry): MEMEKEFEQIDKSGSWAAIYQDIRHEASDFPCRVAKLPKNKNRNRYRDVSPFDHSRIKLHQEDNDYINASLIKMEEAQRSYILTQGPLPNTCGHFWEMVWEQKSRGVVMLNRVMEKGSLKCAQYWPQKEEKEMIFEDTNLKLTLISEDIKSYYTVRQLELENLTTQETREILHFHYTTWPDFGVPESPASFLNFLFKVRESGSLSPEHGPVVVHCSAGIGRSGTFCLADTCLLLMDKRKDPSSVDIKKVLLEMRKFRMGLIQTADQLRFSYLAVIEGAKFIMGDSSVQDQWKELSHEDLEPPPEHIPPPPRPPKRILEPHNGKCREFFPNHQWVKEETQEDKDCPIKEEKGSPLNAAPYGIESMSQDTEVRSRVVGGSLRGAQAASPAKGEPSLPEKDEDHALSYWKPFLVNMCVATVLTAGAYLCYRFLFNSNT
As to the kind of experiment: Inhibition of PTP1B (unknown origin) using DiFMUP as substrate at 5 uM relative to control.

Data set [7] can be described thus: Cytotoxicity against human DLD1 cells overexpressing PRL3 assessed as cell viability at 10 ug/ml after 24 hrs by WST-1 assay relative to control. The class given is cell-based. The note with it: DLD-1 cells overexpressing PRL3, read-out: Activity. Background: Formazan colour is commonly taken as a measure of viable cells.
In data set [8] the target is T4, Protein tyrosine phosphatase type IVA 3 (Homo sapiens, UniProt O75365). The data set is described as follows: Inhibition of PRL3 in human DLD1 cells assessed as increase in phospho-KRT8 level at 10 to 20 uM by immunoblot analysis. The class given is cell-based. Particulars: DLD-1. In general terms: A western blot detects proteins with antibodies after separation by electrophoresis.

For data set [9], the system named is DLD-1. As to the kind of experiment: Antiinvasive activity against human DLD1 cells overexpressing PRL3 assessed as increase in E-cadherin expression at 10 to 50 uM after 24 hrs by immunoblot analysis. The class given is functional, cell-based.
The target of data set [10] is T4, Protein tyrosine phosphatase type IVA 3. As to the kind of experiment: Inhibition of human His6-tagged full length PRL3 assessed as inhibition of DiFMUP dephosphorylation.
Data set [11] concerns DLD-1. As to the kind of experiment: Antiinvasive activity against human DLD1 cells overexpressing PRL3 assessed as decrease in snail expression at […] after 24 hrs by immunoblot analysis. Type of data set: functional, cell-based.
Data set [12] has as its target T4, Protein tyrosine phosphatase type IVA 3. As to the kind of experiment: Inhibition of PRL3 in human DLD1 cells assessed as increase in phospho-ezrin level at 20 uM by immunoblot analysis relative to control. Type of data set: cell-based. Particulars: DLD-1.
Data set [13] shares this target. As to the kind of experiment: Inhibition of His6-tagged full length human PRL3 using DiFMUP as substrate at 5 uM relative to control.
For data set [14] the target is unchanged. As to the kind of experiment: Inhibition of human His6-tagged full length PRL3 assessed as inhibition of DiFMUP dephosphorylation at 5 ug/ml relative to control.

Structures are written as SMILES. Calls of active or inactive are those of the source. The rule behind the calls is not given here.

T4 sequence (O75365 whole entry): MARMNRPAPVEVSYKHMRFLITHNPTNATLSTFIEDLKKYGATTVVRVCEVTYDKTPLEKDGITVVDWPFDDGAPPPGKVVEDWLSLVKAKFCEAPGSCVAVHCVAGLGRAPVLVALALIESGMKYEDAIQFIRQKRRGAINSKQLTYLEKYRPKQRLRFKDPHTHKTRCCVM
Chain of Dual specificity protein phosphatase 3 (Homo sapiens) (P51452 whole entry, looked up): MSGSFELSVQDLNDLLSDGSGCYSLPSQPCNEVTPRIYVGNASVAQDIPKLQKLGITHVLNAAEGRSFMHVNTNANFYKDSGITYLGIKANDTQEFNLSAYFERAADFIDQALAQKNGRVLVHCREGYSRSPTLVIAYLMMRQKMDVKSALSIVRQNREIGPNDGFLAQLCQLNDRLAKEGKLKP

For the compound `O=C1NC(=S)S/C1=C\c1cc(Br)ccc1OCc1ccccc1Br`, the outcome in the data set on A375P, in the data set on DLD-1 [5] and with MIA PaCa-2 was Active. Also, the inhibition (commonly the drop in the measured response relative to a control, in per cent) in data set [1] was 5%; in data set [2], 9%; in [4], 7%; in data set [6], 11%. Moreover, the inhibition at 20 µM in the data set with DLD-1 [3] is greater than 60%. For the same compound, the outcome in the data set with MDA-MB-231 was inactive. In data set [7], the viability at 24 h, 10 ug/ml came to 98.1%.

For the compound `COc1ccccc1COc1ccccc1/C=C/C=C1\SC(=S)NC1=O`, in [8], the inhibition entry was “Active”. In addition, the outcome with A375P, in the data set with DLD-1 [9], with DLD-1 [11], in the data set on DLD-1 [5] and with MIA PaCa-2 was Active. Moreover, the inhibition in data set [1] is 1%; in data set [2] it was 1%; in data set [10], “Dose-dependent effect”; in data set [4] it was 3%; in data set [6], 8%; in data set [13], 73%. Moreover, the inhibition in data set [14] was 78.8%. In addition, the concentration for half-maximal inhibition (IC50) (usually the point on the concentration scale where inhibition reaches its midpoint) in [10] was 800 nM. The fold change (FC) in data set [12] is greater than 3. For the same compound, the inhibition at 20 µM in the data set with DLD-1 [3] was greater than 60%. The outcome with MDA-MB-231 was inactive. The viability at 24 h, 10 ug/ml in data set [7] came to 99.5%.
